According to patent US20140130208A1, “METHODS AND MEANS TO PRODUCE ABIOTIC STRESS TOLERANT PLANTS” (VIB VZW, priority 2011, published 2014):

Assays:
[1] = system: CYCB1;1:Dbox-GUS reporter line; assay: CYCB1;1:DBox-GUS staining of mitotic activity in leaf 3; type: in vivo, Arabidopsis thaliana; settings: 48 h after transfer to 25 mM mannitol or 5 μM ACC
Experimental: Arabidopsis seedlings were germinated and grown on nylon meshes overlaying control medium until 9 days after stratification (DAS), when the third true leaf is fully proliferating (Skirycz et al., 2010), and subsequently transferred to control or mannitol-containing medium (FIGS. 1A to 10). Kinematic analysis was performed, whereby leaves were harvested daily throughout development of leaf 3 (9-20 DAS) and based on drawings of the abaxial epidermis cell number, cell area, number of guard cells and cell division and cell expansion rates were calculated (De Veylder et al., 2001). […] Leaf and plant morphology were not altered by mannitol (FIG. 2C). Cell expansion was also affected by stress and the reduced final leaf area was a combination of fewer and smaller cells (FIG. 2D). The stomatal index, which represents the number of stomata as a fraction of the total number of cells, was reduced as well (FIG. 2E). To learn more about the mechanisms underlying the rapid reduction of cell division upon stress onset, we harvested leaf samples daily after transfer. As a measure of cellular differentiation, the ploidy distribution was examined by flow cytometry. […] In stressed leaves, 4C nuclei started to accumulate approximately one day earlier than in controls at the expense of 2C nuclei (FIG. 3A). […]

[2] = system: Arabidopsis thaliana third true leaf; assay: Growth (kinematic) analysis of the third leaf after transfer of seedlings to mannitol- or ACC-containing medium; type: in vivo
Experimental: Arabidopsis seedlings were germinated and grown on nylon meshes overlaying control medium until 9 days after stratification (DAS), when the third true leaf is fully proliferating (Skirycz et al., 2010), and subsequently transferred to control or mannitol-containing medium (FIGS. 1A to 10). Kinematic analysis was performed, whereby leaves were harvested daily throughout development of leaf 3 (9-20 DAS) and based on drawings of the abaxial epidermis cell number, cell area, number of guard cells and cell division and cell expansion rates were calculated (De Veylder et al., 2001). […] Leaf and plant morphology were not altered by mannitol (FIG. 2C). Cell expansion was also affected by stress and the reduced final leaf area was a combination of fewer and smaller cells (FIG. 2D). The stomatal index, which represents the number of stomata as a fraction of the total number of cells, was reduced as well (FIG. 2E). To learn more about the mechanisms underlying the rapid reduction of cell division upon stress onset, we harvested leaf samples daily after transfer. As a measure of cellular differentiation, the ploidy distribution was examined by flow cytometry. […] In stressed leaves, 4C nuclei started to accumulate approximately one day earlier than in controls at the expense of 2C nuclei (FIG. 3A). Analogously, the number of 8C nuclei increased sharply at 14 DAS in stressed leaves, but only at 15 DAS in control samples (FIG. 3A). Again, transfer itself had no effect on ploidy levels (not shown). […] This observation was further investigated with a CYCB1;1:Dbox-GUS reporter line. Staining for CYCB1;1:Dbox-GUS activity visualizes cells at the G2-to-M transition, reflecting mitotic activity (Colón-Carmona et al., 1999). The most apparent differences were observed 48 h after transfer. […] While the relative size of the cell proliferation zone was similar in mannitol-treated leaves, the remaining proliferating cells were found in a dispersed pattern throughout this zone. […] Within a few days after transfer, division rates adapted to the new conditions and compensation effects were observed.
Seedlings of Arabidopsis thaliana (L.) Heyhn. ecotype Columbia-0 (Col-0) were grown in vitro in half-strength Murashige and Skoog medium (Murashige and Skoog, 1962), supplemented with 1% sucrose under a 16-h day (110 μmol m^−2 s^−1) and 8-h night regime. Plates were overlaid with nylon mesh (Prosep, Zaventem, Belgium) of 20 μm pore size to avoid that roots grew into the medium. Depending on the experiment, 32 or 64 seeds were equally distributed on a 150-mm diameter plate. Mutant plants were grown together with their wild-type controls on the same plate.
(§1) At 9 DAS, when the third leaf is fully proliferating, seedlings were transferred to plates containing control medium or medium supplemented with 25 mM mannitol (Sigma-Aldrich) or 5 μM ACC (Sigma-Aldrich) by gently lifting the nylon mesh with forceps. For the CDKA activity assay the transfer was done at 11 DAS; at this stage, the third leaf is still dividing and can be quickly harvested without the need for RNAlater solution (see below) that would inhibit CDKA activity. All transfers were performed 2-3 h into the day.
Growth analysis was performed on the third true leaf harvested at different time points after transfer. After clearing with 70% ethanol, leaves were mounted in lactic acid on microscopic slides. For each experiment, 8-12 leaves were photographed with a binocular, and epidermal cells (40-300) were drawn for four representative leaves with a DMLB microscope (Leica) fitted with a drawing tubus and a differential interference contrast objective. Photographs of leaves and drawings were used to measure leaf and cell area, respectively, with ImageJ v1.41o (NIH; http://rsb.info.nih.gov/ij/), from which the cell numbers were calculated. The stomatal index was defined as the percentage of stomata per all cells. […]

[3] = system: CDKA; assay: CDKA activity assay on protein extracted from proliferating third leaves; type: in vivo, Arabidopsis thaliana
Experimental: as §1
Total soluble protein was extracted from 50 leaves by adding extraction buffer (Van Leene et al., 2007) to ground samples, followed by two freeze-thaw steps and two centrifugation steps (20,817 g, 10 min, 4° C.), whereby the supernatant was collected each time. Equal amounts of total protein were incubated with p9^CKS1Hs-sepharose beads (De Veylder et al., 1997) and kinase assays were performed as described (De Veylder et al., 1997) with histone H1 as CDK substrate. To correct for the amount of CDKA protein purified by p9^CKS1Hs-sepharose beads, an aliquot of each sample was used for protein gel blot analysis with primary rabbit anti-PSTAIRE antibodies (Santa Cruz) (diluted 1:5000) and a secondary horseradish peroxidase-conjugated donkey anti-rabbit antibodies (GE-Healthcare) (diluted 1:10,000). Proteins were detected by chemiluminescence (Western Lightning Plus ECL, PerkinElmer Life Sciences). CDK activity and CDKA amount were quantified with ImageJ v1.41o. Control samples were arbitrarily set at 100%.

[4] = system: CDKB2;1 and CYCB1;1; assay: Expression of mitotic cell cycle genes CDKB2;1 and CYCB1;1; type: in vivo, Arabidopsis thaliana; settings: 5 μM ACC
[5] = system: Arabidopsis thaliana third true leaf; assay: Ploidy analysis of leaf 3 by flow cytometry (endoreduplication onset); type: in vivo; settings: transfer at 9 DAS to 25 mM mannitol or 5 μM ACC
Experimental: Arabidopsis seedlings were germinated and grown on nylon meshes overlaying control medium until 9 days after stratification (DAS), when the third true leaf is fully proliferating (Skirycz et al., 2010), and subsequently transferred to control or mannitol-containing medium (FIGS. 1A to 10). Kinematic analysis was performed, whereby leaves were harvested daily throughout development of leaf 3 (9-20 DAS) and based on drawings of the abaxial epidermis cell number, cell area, number of guard cells and cell division and cell expansion rates were calculated (De Veylder et al., 2001). […] Leaf and plant morphology were not altered by mannitol (FIG. 2C). Cell expansion was also affected by stress and the reduced final leaf area was a combination of fewer and smaller cells (FIG. 2D). The stomatal index, which represents the number of stomata as a fraction of the total number of cells, was reduced as well (FIG. 2E). To learn more about the mechanisms underlying the rapid reduction of cell division upon stress onset, we harvested leaf samples daily after transfer. […]
For flow cytometry analysis, nuclei were extracted by chopping 4-32 leaves with a razor blade in 1 ml of 45 mM MgCl2, 30 mM sodium citrate, 20 mM 3-(N-morpholino)propanesulfonic acid, pH 7, and 1% Triton X-100 (Galbraith et al., 1983). […] The nuclei were analyzed with a CyFlow flow cytometer with the FloMax Software (Partec).

[6] = transfer at 9 DAS to 25 mM mannitol or 5 μM ACC, leaf 3

1-aminocyclopropane-1-carboxylate [ACC] was tested. Which “number of mitotic cells (CYCB1;1:DBox-GUS activity)” value [1] did it give?
Its value is “no changes in the number of mitotic cells”.

And the “ACC-related decrease in leaf area” value ([2]; ein3.1 and eil1 mutants)?
Its value is “comparable to that of the wild-type”.

And the “ACC-related decrease in leaf area” value ([2]; etr1.3, ein5.1, mkk9 and ein2.5 mutants, versus wild type)?
The value was “significantly less”.

What about the cell proliferation rates [2, 6] of the same substance?
The cell proliferation rates was “rapid reduction of cell proliferation rates”.

What about the stomatal index [2, 6] of the same substance?
The stomatal index was “not affected”.

What about the CDKA activity reduced ([3]; ACC treatment, etr1.3 and ein5.1 mutants) of the same substance?
Its CDKA activity reduced is “not”.

And the CDKA activity ([3]; ACC treatment, wild-type and ein3.1)?
The CDKA activity was “reduced”.

And the CDKA activity ([3]; wild type, 10 and 24 h after transfer to 25 mM mannitol or 5 μM ACC)?
The CDKA activity was “decreased as early as 10 h after transfer”.

What about the “expression of mitotic cell cycle genes CDKB2;1 and CYCB1;1” value [4] of the same substance?
The value was “no difference”.

What about the endoreduplication onset [5] of the same substance?
Its endoreduplication onset is “no changes in endoreduplication onset”.
